Data on three molecules can be found in PMC8948939 (Pharmaceutics, 2022).

The target in data set [1] is T1, CYP3A4 (Homo sapiens, UniProt P08684). As to the kind of experiment: Michaelis-Menten kinetics of midazolam 1-hydroxylation (CYP3A4 marker reaction) in HLM. The class given is in vitro ADME. Also on record: tissue Corning Inc; host or cells: pooled human liver microsomes (150 donors). To be noted: human, human liver microsomes. The text has this:
(§1) Towards the Elucidation of the Pharmacokinetics of
(§2) Josefine Schulz 1, Antonia Thomas 1, Ayatallah Saleh 1,2, Gerd Mikus 1,3, Charlotte Kloft 1,† and Robin Michelet 1,*,† 1 Department of Clinical Pharmacy & Biochemistry, Institute of Pharmacy, Freie Universitaet Berlin, Kelchstraße 31, 12169 Berlin, Germany
(§3) 2 Graduate Research Training Program PharMetrX, 12169 Berlin/Potsdam, Germany 3 Department of Clinical Pharmacology and Pharmacoepidemiology, University Hospital Heidelberg, Im Neuenheimer Feld 410, 69120 Heidelberg, Germany
(§4) * Correspondence: robin.michelet@fu-berlin.de; Tel.: +49-30-838-50659
(§5) † These authors contributed equally to this work
(§6) Supplementary Section S1. Marker reactions for CYP2C19, CYP2C9 and CYP3A4 […]
(§7) for CYP3A4 [1,2] were used to determine (i) intersystem extrapolation factors (ISEF), (ii) […]
(§8) (i) Experiments for the determination of Michaelis-Menten kinetics in HLM were performed at protein concentrations of 0.02, 0.04 and 0.05 mg/mL for the marker reactions of CYP2C19, CYP2C9 and CYP3A4 (n = 3 each), respectively. Two samples were taken from each incubation after 15 and 25 min for investigations on CYP2C19, after 5 and 10 min for CYP2C9 and after 7 and 12 min for CYP3A4, respectively. […]
(§9) were applied as substrate concentrations.
(§10) For investigations in rhCYP concentrations of 2.5 pmol/mL rhCYP2C19 (n = 3), […]
(§11) respectively. […]
Target sequence in this assay (P08684 2-503 limits assumed): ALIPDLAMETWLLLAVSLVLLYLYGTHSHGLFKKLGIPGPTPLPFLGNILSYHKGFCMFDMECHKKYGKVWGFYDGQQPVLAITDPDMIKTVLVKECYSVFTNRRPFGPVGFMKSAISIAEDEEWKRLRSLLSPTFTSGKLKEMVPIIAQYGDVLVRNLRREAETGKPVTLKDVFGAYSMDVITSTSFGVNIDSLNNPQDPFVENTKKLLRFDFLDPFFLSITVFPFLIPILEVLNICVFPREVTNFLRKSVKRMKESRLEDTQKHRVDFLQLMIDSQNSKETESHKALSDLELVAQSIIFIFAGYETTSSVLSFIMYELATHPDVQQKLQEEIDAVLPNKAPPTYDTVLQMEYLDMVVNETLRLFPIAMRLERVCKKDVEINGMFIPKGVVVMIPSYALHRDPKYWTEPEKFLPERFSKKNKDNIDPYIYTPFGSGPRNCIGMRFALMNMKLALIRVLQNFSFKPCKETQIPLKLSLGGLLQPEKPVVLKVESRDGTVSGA
In general terms: Microsomes from liver hold many membrane-bound enzymes, among them those of drug oxidation.

In data set [2] the target is T2, CYP3A4 in human liver microsomes (HLM) (Homo sapiens, UniProt P08684).
T2 construct: tissue Corning Inc; host or cells: pooled human liver microsomes (150 donors)
The data set is described as above. Format: in vitro ADME. To be noted: midazolam 1-hydroxylation; HLM.
Source text: as §1, §2, §3, §4, §5, §6, §7, §8, §9, §10, §11

For data set [3], the target named is T1, CYP3A4. As to the kind of experiment: Michaelis-Menten kinetics of midazolam 1-hydroxylation by rhCYP3A4. Also on record: purchased Corning Inc. Format: in vitro ADME.
Source text: as §1, §2, §3, §4, §5, §6, §7, §8, §9, §10
Target sequence in this assay (P08684 whole entry): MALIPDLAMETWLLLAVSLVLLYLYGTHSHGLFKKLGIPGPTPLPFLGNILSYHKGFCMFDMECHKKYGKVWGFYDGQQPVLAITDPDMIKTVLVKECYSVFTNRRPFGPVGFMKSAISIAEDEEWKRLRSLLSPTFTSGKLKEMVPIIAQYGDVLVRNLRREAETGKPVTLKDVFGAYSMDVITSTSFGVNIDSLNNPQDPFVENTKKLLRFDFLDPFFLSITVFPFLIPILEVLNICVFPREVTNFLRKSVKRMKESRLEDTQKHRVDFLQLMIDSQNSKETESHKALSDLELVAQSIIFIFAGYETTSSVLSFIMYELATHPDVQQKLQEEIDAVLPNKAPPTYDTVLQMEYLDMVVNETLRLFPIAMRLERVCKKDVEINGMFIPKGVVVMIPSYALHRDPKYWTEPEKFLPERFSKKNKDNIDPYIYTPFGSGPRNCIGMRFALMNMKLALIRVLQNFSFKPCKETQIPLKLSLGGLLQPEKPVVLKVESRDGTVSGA
respectively. Sampling time points were identical to those in HLM as were substrate […]
concentration of 0.2 mg/mL for 15 and 25 min (n = 2). Each probe substrate was incubated in the presence of each inhibitor. […]
(§12) were performed at concentrations of 0.2, 0.08 and 0.05 mg/mL HLM for CYP2C19, CYP2C9 and CYP3A4, respectively. IC50 and IC50 shift assays were performed at substrate […]
Reaction times were identical to those described […]

Another data set concerns HLM, HIM and rhCYP. The experiment in a line: Pre-investigations of metabolite formation from VRC in HLM, HIM and rhCYP. Format: in vitro ADME, human. The text has this: As an essential prerequisite, the linearity of metabolite formation with regard to reaction time and enzyme concentration, as well as the absence of substrate depletion (<10%), were investigated.
In data set [4] the target is T3, CYP2C19 (Homo sapiens, UniProt P33261). As to the kind of experiment: Type of reversible inhibition and Ki on CYP2C19 (S-mephenytoin 4-hydroxylation) in HLM. Format: in vitro ADME. Also on record: tissue Corning Inc; host or cells: pooled human liver microsomes (150 donors). The procedure: (§13) Reaction velocities were investigated in function of the substrate ([S]) and inhibitor ([I]) concentration to determine KM, Vmax and Ki of the reaction. The obtained data were used to fit the three main models of reversible inhibition, i.e., competitive (Equation (10)), noncompetitive (Equation (11)) and uncompetitive (Equation (12)) using the “nls” function in R. The type of inhibition was determined according to the best model fit assessed with Akaike’s information criteria (AIC). […] (10) V=Vmax/1+KM/S1+I/Ki (11) V=Vmax/1+KM/S1+I/Ki (12) V=Vmax/1+KM/S+I/Ki […]
as §6, §7, §8
(§14) were applied as substrate concentrations. […]
(§15) Each probe substrate was incubated in the presence of each inhibitor. […]
as §12
(§16) Reaction times were identical to those described

The target of data set [5] is T4, CYP2C9 (Homo sapiens, UniProt P11712). As to the kind of experiment: Type of reversible inhibition and Ki on CYP2C9 (diclofenac 4-hydroxylation) in HLM. More on the design: tissue Corning Inc; host or cells: pooled human liver microsomes (150 donors). Format: in vitro ADME. The procedure: as §13, §6, §7, §8, §14, §15, §12, §16
In data set [6] the target is T1, CYP3A4. The experiment in a line: IC50 and IC50 shift on CYP3A4 marker reaction (midazolam 1-hydroxylation) in HLM. The class given is in vitro ADME. More on the design: tissue Corning Inc; host or cells: pooled human liver microsomes (150 donors). To be noted: for IC50 shift: human, human liver microsomes, pH 7.5, probe midazolam 1-hydroxylation (4.60 µM midazolam). The procedure: (§17) Remaining activity (A, %) was calculated as the ratio of reaction velocities in the inhibited and non-inhibited incubations. IC50 and the steepness of the inhibition curve (H) were estimated by fitting the four-parameter inhibition model to the experimental data (Equation (9)). Maximum (Amax) and baseline activity (A0) were fixed to 100 and 0, respectively. […] (9) A,%=A0+Amax−A0/1+logCInhib/logIC50^H=100/1+logCInhib/logIC50^H […]
as §6, §7
Target sequence in this assay (P08684 2-503 limits assumed): as the sequence (P08684 2-503 limits assumed) above
Two samples were taken […]
from each incubation after 15 and 25 min for investigations on CYP2C19, after 5 and 10 min for CYP2C9 and after 7 and 12 min for CYP3A4, respectively. […]
CYP2C9 and CYP3A4, respectively. IC50 and IC50 shift assays were performed at substrate […]
as §16

In data set [7] the target is T1, CYP3A4. As to the kind of experiment: Type of reversible inhibition and Ki on CYP3A4 (midazolam 1-hydroxylation) in HLM. The class given is in vitro ADME. To be noted: CYP3A4. Also on record: tissue Corning Inc; host or cells: pooled human liver microsomes (150 donors). The procedure:
as §13, §6, §7, §8, §14, §15, §12, §16
Target sequence in this assay (P08684 2-503 limits assumed): as above

Data set [8] deals with human liver microsomes (HLM). As to the kind of experiment: Metabolic stability of voriconazole N-oxide and hydroxyvoriconazole in HLM. The class given is in vitro ADME. To be noted: HLM 0.2 mg/mL. As to the method:
An incubation without HLM served as a control (n = 1).

Data set [9] addresses T3, CYP2C19. The experiment in a line: IC50 and IC50 shift on CYP2C19 marker reaction (S-mephenytoin 4-hydroxylation) in HLM. The class given is in vitro ADME. Also on record: tissue Corning Inc; host or cells: pooled human liver microsomes (150 donors). The procedure:
as §17, §6, §7, §15, §12, §16

For data set [10] the following is noted: cited from earlier work.
Data set [11] has as its target T4, CYP2C9. As to the kind of experiment: IC50 and IC50 shift on CYP2C9 marker reaction (diclofenac 4-hydroxylation) in HLM. The class given is in vitro ADME. More on the design: tissue Corning Inc; host or cells: pooled human liver microsomes (150 donors). As to the method: as §17
Supplementary Section S1. […]
Two samples were taken
from each incubation after 15 and 25 min for investigations on CYP2C19, after 5 and
10 min for CYP2C9 and after 7 and 12 min for CYP3A4, respectively. […]
CYP2C9 and CYP3A4, respectively. IC50 and IC50 shift assays were performed at substrate
as §16

Data set [12] addresses T4, CYP2C9. To be noted: recombinant enzyme, pH 7.5. The procedure:
as §6, §7, §8, §9, §10, §11

The target of data set [13] is CYP2C9 in human liver microsomes (HLM) (Homo sapiens, UniProt P11712). The experiment in a line: in vitro. To be noted: pH 7.5. As to the method: as §6, §7, §8, §14
Data set [14] addresses T4, CYP2C9. As to the kind of experiment: in vitro. To be noted: microsomes, pH 7.5. The procedure: as §6, §7, §8, §14
[15] abbreviates: midazolam 1-hydroxylation, rhCYP3A4.
Where [16] appears, read: 30 min pre-incubation in the absence of NADPH.
[17] abbreviates: 30 min pre-incubation in the absence of NADPH, read-out: IC50 NADPH (−) (95% Confidence Interval).
Where [18] appears, read: 30 min pre-incubation in the presence of NADPH, read-out: IC50 NADPH (+) (95% Confidence Interval).
The mark [19] stands for this setting: 30 min pre-incubation in the presence of NADPH.

Structures are written as SMILES. Like-named read-outs stand apart in the source and are kept apart here.

T3 sequence (P33261 whole entry): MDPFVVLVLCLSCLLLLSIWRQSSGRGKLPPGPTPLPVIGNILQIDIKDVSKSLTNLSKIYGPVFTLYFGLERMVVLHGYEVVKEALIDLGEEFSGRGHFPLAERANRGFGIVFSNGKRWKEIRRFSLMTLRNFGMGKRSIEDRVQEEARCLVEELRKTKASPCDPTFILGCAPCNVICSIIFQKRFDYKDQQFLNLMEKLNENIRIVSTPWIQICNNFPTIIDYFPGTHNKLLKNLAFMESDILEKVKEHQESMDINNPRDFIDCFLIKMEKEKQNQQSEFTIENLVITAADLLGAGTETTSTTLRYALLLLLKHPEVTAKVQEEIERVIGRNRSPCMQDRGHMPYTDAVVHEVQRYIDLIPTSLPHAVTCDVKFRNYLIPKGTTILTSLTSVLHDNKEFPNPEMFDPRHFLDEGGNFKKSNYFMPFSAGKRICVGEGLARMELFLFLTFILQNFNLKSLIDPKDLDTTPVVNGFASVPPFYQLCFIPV
T4 sequence (P11712 whole entry): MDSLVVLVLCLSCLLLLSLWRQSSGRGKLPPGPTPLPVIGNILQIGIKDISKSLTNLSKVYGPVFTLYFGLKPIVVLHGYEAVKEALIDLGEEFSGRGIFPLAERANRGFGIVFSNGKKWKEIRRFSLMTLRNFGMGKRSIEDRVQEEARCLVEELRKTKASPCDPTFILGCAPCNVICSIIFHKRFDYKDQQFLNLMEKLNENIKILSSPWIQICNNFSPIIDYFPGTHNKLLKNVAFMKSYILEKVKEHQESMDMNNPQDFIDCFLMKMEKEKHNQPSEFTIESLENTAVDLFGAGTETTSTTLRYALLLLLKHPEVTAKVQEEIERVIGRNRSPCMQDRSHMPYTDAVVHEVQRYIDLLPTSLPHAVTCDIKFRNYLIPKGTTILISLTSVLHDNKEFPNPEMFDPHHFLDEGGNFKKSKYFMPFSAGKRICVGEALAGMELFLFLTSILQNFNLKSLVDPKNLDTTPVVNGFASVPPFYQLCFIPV
T2 sequence (P08684 2-503 limits assumed): as the sequence (P08684 2-503 limits assumed) above
CYP2C9 in human liver microsomes (HLM), sequence (P11712 whole entry): as the sequence (P11712 whole entry) above

The Km is the substrate concentration at which the rate is half of its maximum. For orientation: microsomal CLint means the rate of metabolic loss divided by the concentration. `Cc1ncc2n1-c1ccc(Cl)cc1C(c1ccccc1F)=NC2` [Midazolam, midazolam]: the Km at CYP3A4 [1] amounted to 4.45 µM. Moreover, the intrinsic metabolic clearance (microsomal CLint) at CYP3A4 [1] (pH 7.5, midazolam 1-hydroxylation, HLM) is 126 µL/min/mg. Moreover, in data set [2], the “Vmax,HLM (95% CI)” value is 559 pmol/min/mg. For the same molecule, the Km on CYP3A4 [3] (human, recombinant human CYP3A4 (rhCYP3A4)) came out at 1.96 µM. At CYP3A4 [3] (setting [15]), the “CLint, rhCYP” value was 0.850 µL/min/pmol and the “Vmax,rhCYP (95% CI)” value was 1.67 pmol/min∙pmol.
Broadly, the Ki is the dissociation constant of the complex between target and ligand, obtained from inhibition or displacement. As usually defined, the IC50 is the concentration that gives 50% inhibition. Turning to `C[C@@H](c1ncnc(O)c1F)[C@](O)(Cn1cncn1)c1ccc(F)cc1F` [OH–VRC, hydroxyvoriconazole], the “OH–VRC formation from VRC” value with HLM, HIM and rhCYP is given as “not observed”. For the same molecule, the “Type of Reversible Inhibition” value on CYP2C19 [4] (CYP2C19, best model fit by AIC) is listed as “competitive”; at CYP2C9 [5] (CYP2C9, best model fit by AIC) it was “competitive”; at CYP3A4 [7] (best model fit by AIC) it was “noncompetitive”. Further, the “inhibitory effect on CYP2C19 relative to VRC (fold lower, from Ki)” value at CYP2C19 [4] (compared to VRC) was determined as 6.1 fold. Moreover, the inhibition constant Ki on CYP2C19 [4] (read-out: Ki (95% CI)) turned out to be 11.6 µM; at CYP2C9 [5] (read-out: Ki (95% CI)), 2.8 µM; on CYP3A4 [7] (midazolam 1-hydroxylation, HLM, read-out: Ki (95% CI)), 2.53 µM. Further, the “IC50 Shift NADPH (−)” value at CYP3A4 [6] (setting [16]) was found to be 1.76; at CYP2C19 [9] (setting [16]), 1.17. For the same molecule, the concentration for half-maximal inhibition (IC50) at CYP3A4 [6] (setting [17]) was 0.579 µM; on CYP3A4 [6] (setting [18]), 1.57 µM; on CYP3A4 [6] (without pre-incubation, 4.60 µM midazolam, HLM, read-out: IC50 (95% Confidence Interval)), 1.02 µM; at CYP2C19 [9] (setting [17]) it was over 34.2 µM; on CYP2C19 [9] (setting [18]) it was 33.6 µM; at CYP2C19 [9] (without pre-incubation, […] S-mephenytoin, HLM, NO and OH–VRC estimates exceed applied concentrations (max 34.2 µM), read-out: IC50 (95% Confidence Interval)) it was over 34.2 µM. In addition, the IC50 on CYP2C9 [11] (setting [17]) worked out at 3.68 µM; on CYP2C9 [11] (setting [18]), 3.64 µM; on CYP2C9 [11] (without pre-incubation, 4.73 µM diclofenac, HLM, read-out: IC50 (95% Confidence Interval)), 3.67 µM. The “time dependence of inhibition” value on CYP3A4 [6] (IC50 shift assay), at CYP2C19 [9] (IC50 shift assay) and at CYP2C9 [11] (IC50 shift assay) was “Time-independent inhibition” in each case. Moreover, the IC50 shift at CYP3A4 [6] (setting [16]) is over 1.5; at CYP3A4 [6] (setting [19]) it was 0.65; on CYP2C9 [11] (human, human liver microsomes, pH 7.5, probe diclofenac 4-hydroxylation (4.73 µM diclofenac), 30 min pre-incubation in the absence of NADPH), 0.997. Moreover, the “depletion over time when incubated directly with HLM” value in data set [8] (5-60 min, 0.137 and 1.10 µM) was “no depletion”. In data set [8] (high concentration (1.10 µM), single replicates), the “% compared to a control incubation without HLM after 60 min” value came to 94.7%. The “IC50 Shift NADPH (+)” value on CYP2C19 [9] (setting [19]) amounted to 1.24. In addition, in data set [10], the “plasma concentrations, fold lower than those of NO” value is “up to 30 fold”. Also, the IC50 shift at 30 min on CYP2C9 [11] (human, human liver microsomes, pH 7.5, probe diclofenac (4-hydroxylation), 4.73 µM, 30 min pre-incubation in the presence of NADPH) is 1.01.
Consider `O=C(O)Cc1ccccc1Nc1c(Cl)cccc1Cl` [Diclofenac, diclofenac], for which the “CLint, rhCYP” value on CYP2C9 [12] was found to be 5.89 µL/min/pmol. The “Vmax,HLM (95% CI)” value in [13] was found to be 1693 pmol/min/mg. This molecule also returned an intrinsic clearance (microsomal CLint) on CYP2C9 [14] of 408 µL/min/mg.
